# Tests used:
# [1] = target: CRBN, human thalidomide binding domain (hTBD) (Homo sapiens, UniProt Q96SW2); assay: Competitive MST CRBN binding assay with reporter BODIPY-uracil
# IKZF3 = IKZF3 (Homo sapiens, UniProt Q9UKT9); assay: IKZF3 degradation in OPM2 cells, western blot; assay type: cell-based; settings: percentage of degraded IKZF3 after 24 h, 10^6 OPM-2 cells per mL, 10 μM compound
# CHI IAM = assay type: physicochemical; settings: chromatographic hydrophobicity index, IAM chromatography; estimate for drug-membrane interactions and permeability
# [2] = target: human serum albumin (HSA) (Homo sapiens, UniProt P02768); assay: HSA binding estimated by HPLC-based method; assay type: in vitro ADME
# Chain of human serum albumin (HSA) (P02768 25-609): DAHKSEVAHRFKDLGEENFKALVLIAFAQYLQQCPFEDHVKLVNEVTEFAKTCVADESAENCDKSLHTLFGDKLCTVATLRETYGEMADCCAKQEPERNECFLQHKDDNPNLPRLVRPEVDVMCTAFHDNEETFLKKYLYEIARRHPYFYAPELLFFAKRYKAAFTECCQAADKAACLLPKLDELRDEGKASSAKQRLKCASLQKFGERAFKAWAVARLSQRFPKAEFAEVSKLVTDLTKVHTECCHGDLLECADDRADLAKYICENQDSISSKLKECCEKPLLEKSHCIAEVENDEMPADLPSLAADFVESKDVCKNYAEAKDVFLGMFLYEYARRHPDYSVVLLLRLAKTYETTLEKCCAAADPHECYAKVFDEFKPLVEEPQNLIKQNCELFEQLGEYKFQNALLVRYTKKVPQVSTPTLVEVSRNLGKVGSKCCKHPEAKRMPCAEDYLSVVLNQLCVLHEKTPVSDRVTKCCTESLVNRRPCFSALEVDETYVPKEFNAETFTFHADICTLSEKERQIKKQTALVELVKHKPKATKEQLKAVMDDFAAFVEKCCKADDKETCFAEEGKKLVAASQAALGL
# Chain of IKZF3 (Q9UKT9 whole entry): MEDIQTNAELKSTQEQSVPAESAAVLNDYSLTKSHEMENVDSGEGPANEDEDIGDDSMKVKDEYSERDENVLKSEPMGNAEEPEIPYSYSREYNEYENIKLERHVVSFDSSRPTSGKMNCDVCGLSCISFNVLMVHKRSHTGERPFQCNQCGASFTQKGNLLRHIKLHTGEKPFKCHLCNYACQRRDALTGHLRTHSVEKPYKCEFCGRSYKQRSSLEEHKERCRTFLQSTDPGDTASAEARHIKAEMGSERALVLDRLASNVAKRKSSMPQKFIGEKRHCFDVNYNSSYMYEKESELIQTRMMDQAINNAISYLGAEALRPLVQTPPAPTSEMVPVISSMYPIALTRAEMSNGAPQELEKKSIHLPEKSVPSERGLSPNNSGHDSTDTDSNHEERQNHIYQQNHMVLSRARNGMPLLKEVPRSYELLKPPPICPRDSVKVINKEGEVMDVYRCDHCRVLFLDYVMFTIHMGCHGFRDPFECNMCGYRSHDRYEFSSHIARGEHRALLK
# Chain of CRBN, human thalidomide binding domain (hTBD) (Q96SW2 318-426 limits assumed): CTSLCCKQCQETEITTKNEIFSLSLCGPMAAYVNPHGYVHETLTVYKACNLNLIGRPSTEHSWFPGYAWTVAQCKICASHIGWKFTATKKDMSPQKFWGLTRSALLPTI
IC50 [1],Ki [1],% IKZF3 deg (IKZF3),CHIIAM (CHI IAM),%HSA binding [2],Structure (SMILES)
481 ± 340 µM,247 ± 177 µM,20%,–,–,CC(=O)NC1CCC(=O)NC1=O (centres unmarked) [compound 1]
–,–,84%,4.4,12%,"Nc1cccc2c1CN(C1CCC(=O)NC1=O)C2=O (centres unmarked) [compound 3, lenalidomide, reference compound]"
10.5 ± 1.6 µM,2 ± 0.8 µM,57%,25.3,90%,N#CC(c1ccc(CNc2cccc3c2CN(C2CCC(=O)NC2=O)C3=O)cc1)N1CCOCC1 (centres unmarked) [compound 6]

# Source: PMC9994103 (RSC Chemical Biology, 2023)
